In article PMC4624765, “C-di-GMP Regulates Motile to Sessile Transition by Modulating MshA Pili Biogenesis and Near-Surface Motility Behavior in Vibrio cholerae” (PLoS Pathogens, 2015):

Tests used:
MshE N-terminal domain = target: T1, MshE N-terminal domain (Vibrio cholerae, UniProt Q9KUV7); assay: fluorescence thermal shift (SYPRO Orange); assay type: binding; conditions: 25 mM Tris-HCl pH 7.5, 100 mM NaCl, 0.2 mM MgCl2
T1 construct: gene VC_0405; N-terminal domain, residues 1-180, expressed in E. coli BL21
T1 sequence (Q9KUV7 1-180 limits assumed): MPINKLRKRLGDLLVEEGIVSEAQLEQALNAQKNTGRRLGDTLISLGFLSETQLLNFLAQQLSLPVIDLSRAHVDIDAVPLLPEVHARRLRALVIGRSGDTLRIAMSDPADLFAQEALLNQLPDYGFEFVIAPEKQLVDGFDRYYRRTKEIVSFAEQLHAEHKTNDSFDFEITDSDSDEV

VpsT = target: T2, VpsT (Vibrio cholerae, UniProt Q9KKZ8); assay: biochemical
T2 construct: gene VC_A0952

MshE [1] = target: T3, MshE (Vibrio cholerae, UniProt Q9KUV7); assay: biochemical; parameters: gene VC_0405
T3 sequence (Q9KUV7 1-575): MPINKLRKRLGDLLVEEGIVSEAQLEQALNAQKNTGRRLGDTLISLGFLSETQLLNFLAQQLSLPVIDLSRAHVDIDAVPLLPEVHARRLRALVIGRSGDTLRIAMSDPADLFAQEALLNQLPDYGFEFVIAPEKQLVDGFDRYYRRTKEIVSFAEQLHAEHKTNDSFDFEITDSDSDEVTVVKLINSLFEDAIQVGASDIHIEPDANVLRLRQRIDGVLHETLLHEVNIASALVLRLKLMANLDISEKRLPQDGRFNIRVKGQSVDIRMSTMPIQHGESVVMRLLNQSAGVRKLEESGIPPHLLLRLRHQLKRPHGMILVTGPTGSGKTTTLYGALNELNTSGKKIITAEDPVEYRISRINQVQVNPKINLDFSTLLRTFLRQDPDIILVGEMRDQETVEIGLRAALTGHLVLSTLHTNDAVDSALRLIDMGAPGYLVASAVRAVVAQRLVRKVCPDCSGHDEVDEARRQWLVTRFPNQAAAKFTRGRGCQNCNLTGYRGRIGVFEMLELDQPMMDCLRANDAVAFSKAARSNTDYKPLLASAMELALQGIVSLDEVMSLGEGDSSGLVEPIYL

MshE [2] = target: T3, MshE; assay: fluorescence thermal shift (SYPRO Orange); assay type: binding; parameters: gene VC_0405; full-length, expressed in E. coli BL21, purified on GST column with glutathione elution; conditions: 25 mM Tris-HCl pH 7.5, 100 mM NaCl, 0.2 mM MgCl2

Compound	Tm with 2 mM ligand (MshE N-terminal domain)	Kd (VpsT)	Kd (MshE [1])	Tm with 2 mM ligand (MshE [2])
Nc1nc2c(ncn2[C@@H]2O[C@@H]3COP(=O)(O)O[C@H]4[C@@H](O)[C@H](n5cnc6c(=O)[nH]c(N)nc65)O[C@@H]4COP(=O)(O)O[C@H]3[C@H]2O)c(=O)[nH]1 [c-di-GMP]	70.18 ±0.55 °C	10.1 µM	8.77 µM	42.77±0.70 °C
Nc1ncnc2c1ncn2[C@@H]1O[C@H](COP(=O)(O)OP(=O)(O)OP(=O)(O)O)[C@@H](O)[C@H]1O [ATP]				40.15 ±1.02 °C
